This is an account of results in patent EP3236920B1, “ANTIMICROBIAL PREPARATION COMPRISING BISPYRIDINIUM ALKANES, 1- OR 2-(C1 TO C24 ALKYL) GLYCEROL ETHER AND ALKANE-1,2-DIOLS” (Beiersdorf AG, priority 2014, dated 2016).

Assay [1] deals with Propionibakterium acnes. Nature of the assay: Suspension test, antimicrobial efficacy (reduction factor of cell count vs control). It is filed as cell-based, P. acnes (DSM 1897). The following applies: after 24h at 37°C, anaerobic medium; cfu(Kontrolle)/cfu(Testsubstanz); A: 0,2 µg/ml TPI 2007; B: 250 µg/ml Decan-1,2-diol; C: 250 µg/ml Decan-1,2-diol + 0,2 µg/ml TPI 2007. How it is done:
Die antimikrobielle Wirksamkeit der erfindungsgemäßen dermatologischen und/oder kosmetischen Zubereitung gegen Propionibakterium acnes (P. acnes) wurde zum Vergleich mit verschiedenen Formulierungen untersucht.
Dazu wurde das Bakterium P. acnes (DSM 1897) aus einem nach EN 12353 angelegten Cryoröhrchen auf einer entsprechenden Agarplatte (Cost-Agar) ausgestrichen und bei 37°C 5 Tage unter anaeroben Bedingungen bebrütet.
Eine Impföse der Bakterien wurde zu 10mL anaerobem Medium gegeben und im Impedanzgerät mit dem Programm PR37NT unter anaeroben Bedingungen inkubiert. Anschließend wurde diese Bakteriensuspension auf eine OD (optische Dichte) von 0,3-0,5 eingestellt. Die eingestellte Bakteriensuspension wurde dann 1:10 mit anaerobem Medium verdünnt, um eine Keimzahl von ungefähr 5*10^6 zu gewährleisten. Diese Bakteriensuspension wurde anschließend für den Test eingesetzt.
Der Suspensionstest wurde per Hand durchgeführt. Hierzu wurden 500µL der zu testenden Wirkstofflösungen bzw. im Falle der Kontrollen 500 µl anaerobem Medium in Mikroreaktionsgefäßen vorgelegt. Anschließend wurden 500 µl der Bakteriensuspension hinzugegeben und gemischt. Zum Zeitpunkt t0 wurde eine Probe aus den Kontrollen entnommen. Die Mikroreaktionsgefäße wurden nun im Thermoschüttler bei 37 °C inkubiert. […]

In assay [2] the test system is Propionibakterium acnes. To be noted: 0,2% Decan-1,2-diol alone; cited from earlier work.

As for `CCCCCCCCC(O)CO` (centres unmarked) [Probe B, Decan-1,2-diol], in the assay on Propionibakterium acnes [1], the Reduktionsfaktor turned out to be 1. Further, in the assay with Propionibakterium acnes [2], the “antibakterielle Wirkung im Suspensionstest” value is “so gut wie keine antibakterielle Wirkung”.
